Measurements as given in patent publication US20070259879A1, “Piperazine and piperidine biaryl derivatives” (priority 2006, published 2007).

What follows are compounds tested on HIV-1 pseudotyped virus (assay: HIV-1 pseudotyped virus assay (luciferase reporter gene, single cycle of infection)). Details: Human immunodeficiency virus 1, CCR5, 72 h, read-out: Activity (antiviral activity, IC50).
Format: cell-based
Text: In this example are illustrated experimental procedures for determining biological activity, such as antiviral activity. For determining biological activity, an HIV-1 infection assay was used to determine the antiviral potency for compounds of the present invention.
For determining biological activity, an HIV-1 pseudotyped virus assay was used to determine the respective antiviral potencies of each compound tested in the assay for comparison. The pseudotyped assay scores for a reduction in infection as indicated by decreased signal from the reporter gene encoding a luciferase enzyme (“reporter gene”). The assay employs cell lines expressing CD4 and either of the primary chemokine receptors (CCR5 or CXCR4) that HIV uses as a co-receptor (“target cells”). Pseudotyped virus was prepared by co-transfection of 293T cells with: 1) a plasmid construct carrying the HIV-1 envelope of choice, in combination with 2) a pseudotyped virus backbone construct in which (a) envelope expression has been abrogated due to a frameshift in the envelope sequence, and (b) the reporter gene replaces nef. Expression of HIV-1 envelope on 293T packaging cells results in the production of a pseudotyped virus carrying the reporter gene that is capable of a single cycle of infection.
The compounds of the present invention being tested for antiviral activity were serially diluted and dose responses determined in duplicate in two separate experiments. The compounds to be tested were added directly to the plated, target cells, followed by the addition of pseudotyped virus described above. The cells were cultured for three days prior harvest. Media and compound were removed, the cell monolayer was washed, lysed by detergent, and then frozen at −80 degrees C. for a minimum of 30 minutes. Following thawing and acclimation to room temperature, luciferase production was quatified by injecting 100 […]I of a substrate (of the enzyme encoded by the reporter gene) into each well followed by detecting the signal (light emitted from the interaction between the enzyme and substrate) after 5 seconds. In the pseudotyped assay, a 50% reduction in signal is significant, and provides the primary cutoff value for assessing antiviral activity (“IC50” is defined as the dilution resulting in a 50% reduction in enzymatic activity as interpolated from a titration curve). Representative compounds according to the present invention, and their antiviral activity, are illustrated in Table 3.
In the case of `CC1CN(C(=O)c2ccccc2)CCN1S(=O)(=O)c1ccc(-c2ccncn2)s1` (centres unmarked) [Example 148, (3-methyl-4-(5-(pyrimidin-4-yl)thiophen-2-ylsulfonyl)piperazin-1-yl)(phenyl)methanone], the IC50 is reported as greater than 5 µM.
Work on `C[C@@H]1CN(C(=O)c2ccccc2)CCN1C(=O)C(=O)c1ccc(-c2cccnc2)cc1` [Example 199] yielded an IC50 of less than 5 µM.
`C[C@@H]1CN(C(=O)c2ccccc2)CCN1S(=O)(=O)c1ccc(-n2cccn2)cc1` [Example 133, [(R)-3-methyl-4-(4-pyrazole-1-yl-benzenesulfonyl)-piperazin-1-yl]-phenyl-methanone] showed an IC50 greater than 5 µM.
Compound `C[C@@H]1CN(C(=O)c2ccccc2)CCN1C(=O)C(=O)c1cccc(-c2ncccn2)c1` [Example 253] has an IC50 greater than 5 µM.
In the case of `COc1cc(Br)c(Cl)cc1C(=O)C(=O)N1CCN(C(=O)c2ccccc2)CC1` [Example 228], the IC50 is reported as less than 5 µM.
`C[C@@H]1CN(C(=O)c2ccccc2)CCN1C(=O)C(=O)c1cnc(-c2ccccc2)cc1O` [Example 244] showed an IC50 greater than 5 µM.
For `CC1CN(C(=O)c2ccccc2)CCN1S(=O)(=O)c1ccc(-c2cnco2)cc1` (centres unmarked) [Example 166, [3-Methyl-4-(4-oxazol-5-yl-benzenesulfonyl)-piperazin-1-yl]-phenyl methanone], the IC50 was greater than 5 µM.
`Cc1c[nH]c(-n2cc(-c3ccc(S(=O)(=O)N4CCN(C(=O)c5ccccc5)C[C@H]4C)s3)nn2)n1` [Example 129, ((R)-3-Methyl-4-{5-[1-(4-methyl-1H-imidazol-2-yl)-1H-[1,2,3]triazol-4-yl]-thiophene-2-sulfonyl}-piperazin-1-yl)-phenyl-methanone] was tested, and the IC50 was greater than 5 µM.
In the case of `CC1CN(C(=O)c2ccccc2)CCN1S(=O)(=O)c1ccc(C(=O)c2ccon2)s1` (centres unmarked) [Example 112, {4-[5-(Isoxazole-3-carbonyl)-thiophene-2-sulfonyl]-3-methyl-piperazin-1-yl}-phenyl-methanone], the IC50 is reported as greater than 5 µM.
`C[C@@H]1CN(C(=O)c2ccccc2)CCN1C(=O)C(=O)c1ccc(-n2ccnc2)cc1` [Example 217] showed an IC50 of less than 5 µM.
`CC1CN(C(=O)c2ccccc2)CCN1S(=O)(=O)c1ccc(-c2ncnc3ccsc23)s1` (centres unmarked) [Example 151, (3-methyl-4-(5-(thieno[3,2-d]pyrimidin-4-yl)thiophen-2-ylsulfonyl)piperazin-1-yl)(phenyl)methanone] showed an IC50 greater than 5 µM.
`CC1CN(C(=O)c2ccccc2)CCN1S(=O)(=O)c1ccc(-c2ccc(-c3ccon3)s2)s1` (centres unmarked) [Example 143, (4-(5′-(isoxazol-3-yl)-2,2′-bithiophen-5-ylsulfonyl)-3-methylpiperazin-1-yl)(phenyl)methanone] was tested, and the IC50 was greater than 5 µM.
`Cc1cc(-c2ccc(C(O)C(=O)N3CCN(C(=O)c4ccccc4)C[C@H]3C)cc2)on1` (some centres unmarked) [Example 235] was tested, and the IC50 was greater than 5 µM.
`CC(=O)c1ccc(-n2cc(-c3ccc(S(=O)(=O)N4CCN(C(=O)c5ccccc5)C[C@H]4C)cc3)nn2)cc1` [Example 123] was tested, and the IC50 was greater than 5 µM.
`CC1CN(C(=O)c2ccccc2)CCN1S(=O)(=O)c1ccc(-c2cccs2)s1` (centres unmarked) [Example 142, (4-(2,2′-bithiophen-5-ylsulfonyl)-3-methylpiperazin-1-yl)(phenyl)methanone] gave an IC50 of less than 5 µM.
Work on `CC1CN(C(=O)c2ccccc2)CCN1S(=O)(=O)c1ccc(C(=O)n2ccnc2)cc1` (centres unmarked) [Example 249] yielded an IC50 greater than 5 µM.
Compound `Cc1cc(-c2cc[nH]n2)ccc1C(=O)C(=O)N1CCN(C(=O)c2ccccc2)C[C@H]1C` [Example 181, 1-((R)-4-Benzoyl-2-methyl-piperazin-1-yl)-2-[2-methyl-4-(1H-pyrazol-3-yl)-phenyl]-ethane-1,2-dione] has an IC50 of less than 5 µM.
Compound `C[C@@H]1CN(C(=O)c2ccccc2)CCN1S(=O)(=O)c1ccc(C(=O)c2ccsc2)s1` [Example 246] has an IC50 greater than 5 µM.
`C[C@@H]1CN(C(=O)c2ccccc2)CCN1C(=O)C(=O)c1cc(Cl)c(-c2cc[nH]n2)c(Cl)c1N` [Example 230] gave an IC50 greater than 5 µM.
In the case of `C[C@@H]1CN(C(=O)c2ccccc2)CCN1C(=O)C(=O)c1ccc(-c2ccn[nH]2)nc1` [Example 186, 1-((R)-4-Benzoyl-2-methyl-piperazin-1-yl)-2-[6-(1H-pyrazol-3-yl)-pyridin-3-yl]-ethane-1,2-dione], the IC50 is reported as less than 5 µM.
